Laboratory results published in patent US7884082B2, “Combined therapeutical treatment of hyperproliferative diseases” (Aventis Pharma SA, priority 1995, dated 2011).

How the values were obtained:
H460 cells [1] = assay: Sensitivity of transfected H460 cells to taxotere, cisplatin or camptothecin (colony count, Example 2); format: cell-based, human; details: for apoptotic effect induced by the GAP (170-702) construction on addition of the product: added to culture medium of human tumour cells transfected with GAP(170-702), at concentrations without effect on cell viability; for apoptotic effect induced by the transfer of the Grb3-3 gene on addition of the product: added to culture medium of human tumour cells transfected with Grb3-3, at concentrations without effect on cell viability; for effect of the product alone on cell viability: concentrations used in the combination, human tumour cells
Text: H460 cells transfected as described in Example 1 are subjected during selection by geneticin to a treatment for several days at different concentrations of taxotere, of cisplatin or of camptothecin. The H460/Neo^R cells and which are resistant to the chemotherapeutic agents are quantified as described in Example 1. The sensitivity to taxotere (A), to cisplatin (B) or to camptothecin (C) of the H460 cells transfected with pSV2-Neo (●), pSV2-Neo+pSV2-GAP[170-702] (▴) or pSV2-Neo+pSV2-Grb3-3 (▾) is depicted relative to cells transfected identically but in the absence of treatment with the chemotherapeutic agents. The results of an experiment which is representative of quantification of the number of colony after the different treatments mentioned are summarized in FIG. 2.

[2] = system: various tumour cell lines; details: various tumour cell lines in culture; cited from earlier work
H460 cells [3] = assay: Sensitivity of isolated H460 clones transfected with pcDNA3 or pcDNA3-p53WT to taxotere (Example 3); format: cell-based, human
Text: H460 cells are transfected with cDNA coding for the wild-type p53 protein (p53^WT) placed in the plasmid pcDNA3 under the control of the CMV promoter. Plasmid pcDNA3 also contains the Neo gene placed under the control of the SV40 promoter. Cells transfected with pcDNA3 or pcDNA3-p53^WT are selected and isolated as described in Example 1. In the cells transfected with pcDNA3-p53^WT and which are resistant to geneticin, the presence of p53 is verified by western blotting using specific antibodies. FIG. 3 summarizes the results of a representative experiment in which are depicted, on the one hand the number of colonies obtained after pcDNA3 or pcDNA3-p53^WT transfection (A), and on the other hand the sensitivity of the clones isolated to a treatment with taxotere (B).

SMILES	apoptotic effect induced by the GAP (170-702) construction on addition of the product (H460 cells [1])	apoptotic effect induced by the transfer of the Grb3-3 gene on addition of the product (H460 cells [1])	effect of the product alone on cell viability (H460 cells [1])	induction of apoptosis [2]	effect of taxotere on H460 clones expressing wild-type p53 (H460 cells [3]; H460 clones resistant to the effect of p53, increasing doses of taxotere)	effect of taxotere on cells that do not express wild-type p53 (H460 cells [3]; same concentrations as those killing p53-expressing clones)
N.N.[Cl][Pt][Cl] [cisplatin]	very greatly increased	very greatly increased	without effect on cell viability	–	–	–
CC(=O)O[C@H]1C(=O)[C@@]2(C)[C@H]([C@H](OC(=O)c3ccccc3)[C@]3(O)C[C@H](OC(=O)[C@H](O)[C@@H](NC(=O)c4ccccc4)c4ccccc4)C(C)=C1C3(C)C)[C@]1(OC(C)=O)CO[C@@H]1C[C@@H]2O [Taxol, 4,10β-diacetoxy-2α-benzoyloxy-5β,20-epoxy-1β,7β-dihydroxy-9-oxo-11-taxen-13α-yl (2R,3S)-3′-benzoylamino-3′-phenyl-2′-hydroxypropionate]	–	–	–	induces apoptosis	–	–
CC[C@@]1(O)C(=O)OCc2c1cc1n(c2=O)Cc2cc3ccccc3nc2-1 [camptothecin]	very greatly increased	very greatly increased	without effect on cell viability	–	–	–
CC(=O)O[C@@]12CO[C@@H]1C[C@H](O)[C@@]1(C)C(=O)[C@H](O)C3=C(C)[C@@H](OC(=O)[C@H](O)[C@@H](NC(=O)OC(C)(C)C)c4ccccc4)C[C@@](O)([C@@H](OC(=O)c4ccccc4)[C@H]21)C3(C)C [taxotere, 4-acetoxy-2α-benzoyloxy-5β,20-epoxy-1β,7β,10β-trihydroxy-9-oxo-11-taxen-13α-yl (2R,3S)-3′-t-butoxycarbonylamino-3′-phenyl-2′-hydroxypropionate]	very greatly increased	very greatly increased	without effect on cell viability	–	cells die	completely ineffective
